US8426447B2, “Spiro-tricyclic ring compounds as beta-secretase modulators and methods of use” (Amgen Inc., priority 2008, dated 2013)

Experiments:
BACE1 [1] = target: T1, BACE1 (Homo sapiens, UniProt P56817); test: In Vitro Enzymatic BACE FRET (Fluorescence Resonance Energy Transfer) Assay; assay type: biochemical; conditions: read-out: BACE1 FRET assay
Description: In Vitro Enzymatic BACE FRET (Fluorescence Resonance Energy Transfer) Assay (Enzyme Assay Data in the Example Tables I, II, III & IV) The assay buffer used in this screen is 0.05 M acetate, pH 4.2, 10% DMSO final, 100 uM genapol (which is a nonionic detergent, below its Critical Micelle Concentration). […] This assay is effectively started by the addition of FRET substrate (50 nM) and the combination is incubated for one hour. The FRET assay is terminated with by addition of Tris buffer, which raises the pH to neutrality, and the fluorescence is determined. The FRET substrate is a peptide with commercially available fluorophore and quencher, on opposite sides of the BACE cleavage site. […]

BACE1 [2] = target: T1, BACE1; test: In Vitro BACE Cell-based Assay (HEK cell assay): Aβ40 in conditioned medium of cells stably expressing Amyloid Precursor Protein, sandwich ELISA; conditions: read-out: HEK cell assay
Description: In Vitro BACE Cell-based Assay
The cell-based assay measures inhibition or reduction of Aβ40 in conditioned medium of test compound treated cells expressing amyloid precursor protein.
Cells stably expressing Amyloid Precursor Protein (APP) were plated at a density of 40K cells/well in 96 well plates (Costar). The cells were cultivated for 24 hours at 37° C. and 5% CO2 in DMEM supplemented with 10% FBS. The test compounds were then added to cells in 10-point dose response concentrations with the starting concentration being either 100 μM or 10 μM. The compounds were diluted from stock solutions in DMSO and the final DMSO concentration of the test compounds on cells was 0.1%. After 24 h of incubation with the test compounds the supernatant conditioned media was collected and the Aβ 40 levels were determined using a sandwich ELISA. The IC50 of the compound was calculated from the percent of control or percent inhibition of Aβ 40 as a function of the concentration of the test compound.
The sandwich ELISA to detect Aβ 40 was performed in 96 well microtiter plates, which were pre-treated with goat anti-rabbit IgG (Pierce). The capture and detecting antibody pair that were used to detect Aβ 40 from cell supernatants were affinity purified pAb40 (Biosource) and biotinylated 6E10 (Signet Labs Inc.), respectively. The optimal concentration for the pAb40 antibody was 3 μg/ml in Superblock/TBS (Pierce) that was supplemented with 0.05% Tween 20 (Sigma).
Cellular supernatants were incubated with the capture antibody for 3 h at 4° C., followed by 3 wash steps in TBS-tween (0.05%). The detecting antibody incubation was for 2 h at 4° C., again followed by the wash steps as described previously. The final readout of the ELISA is Time-Resolved Fluorescence (counts per minute) using Delfia reagents Streptavidin-Europium and Enhancement solutions (Perkin Elmer) and the Victor 2 multilabel counter (Perkin Elmer).

[3] = in vitro BACE FRET enzyme assay, IC50 class symbols
[4] = HEK cell-based assay, Aβ40 in conditioned medium, IC50 class symbols

T1 sequence (P56817 46-501, species assumed): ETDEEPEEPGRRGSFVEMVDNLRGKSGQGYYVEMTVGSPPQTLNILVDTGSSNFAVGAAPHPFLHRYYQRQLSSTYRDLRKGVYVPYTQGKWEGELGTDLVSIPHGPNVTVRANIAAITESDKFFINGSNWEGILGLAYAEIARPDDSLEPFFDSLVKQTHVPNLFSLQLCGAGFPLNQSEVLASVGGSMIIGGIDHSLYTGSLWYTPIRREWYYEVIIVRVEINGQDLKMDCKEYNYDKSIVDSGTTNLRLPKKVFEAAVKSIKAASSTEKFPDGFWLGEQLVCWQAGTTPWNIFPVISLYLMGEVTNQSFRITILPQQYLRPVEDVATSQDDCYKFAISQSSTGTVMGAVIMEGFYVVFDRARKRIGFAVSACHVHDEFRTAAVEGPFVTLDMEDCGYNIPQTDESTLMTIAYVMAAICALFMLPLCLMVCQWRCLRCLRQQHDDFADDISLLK

CC(C)(C#N)COc1ccc2c(c1)[C@]1(COC(N)=N1)c1cc(C#CC3CC3)ccc1O2 [compound 178]
IC50 (BACE1 [1]; Table III, IC50's in uM ranges): < 0.1 µM
IC50 (BACE1 [2]; Table III, IC50's in uM ranges): 0.1 to 1 µM

CC(C)(O)C#Cc1cnc2c(c1)[C@]1(COC(N)=N1)c1cc(-c3ccccc3)ccc1O2 [compound 647]
IC50 (BACE1 [1]; Table IV, class symbols): < 0.1 µM
IC50 (BACE1 [2]; Table IV, class symbols): < 0.1 µM

NC1=N[C@]2(CO1)c1cc(-c3cccnc3)ccc1Oc1cnc(C3CC3)cc12 [compound 678]
IC50 (BACE1 [1]): < 0.1 µM
IC50 (BACE1 [2]): 0.1 to 1 µM

N#Cc1ccccc1Oc1ccc2c(c1)[C@]1(COC(N)=N1)c1cc(-c3cccnc3)ccc1O2 [compound 986]
IC50 (BACE1 [1]): 0.1 to 1 µM
IC50 (BACE1 [2]): 1 to 5 µM

COc1ccc(-c2ccc3c(c2)[C@]2(COC(N)=N2)c2cc(-c4cncnc4)ccc2O3)cc1OC [compound 830]
IC50 (BACE1 [1]; Table IV, class symbols): < 0.1 µM
IC50 (BACE1 [2]; Table IV, class symbols): 0.1 to 1 µM

COC(C)(C)C#Cc1ccc2c(c1)[C@@]1(COC(N)=N1)c1cc(-c3cccnc3)cnc1O2 [compound 179]
IC50 (BACE1 [1]; Table III, IC50's in uM ranges): < 0.1 µM
IC50 (BACE1 [2]; Table III, IC50's in uM ranges): 0.1 to 1 µM

COc1ccc2c(c1)[C@@]1(N=C(N)O[C@H]1C)c1cc(-c3cncnc3)ccc1O2 (single isomer, unassigned) [Example 125b]
IC50 (BACE1 [1]; Table III, IC50's in uM ranges): 0.1 to 1 µM
IC50 (BACE1 [2]; Table III, IC50's in uM ranges): 0.1 to 1 µM

NC1=N[C@]2(CO1)c1ccccc1Oc1ccc(-c3cccc4ncccc34)cc12 [compound 627]
IC50 (BACE1 [1]; Table IV, class symbols): > 5 µM
IC50 (BACE1 [2]; Table IV, class symbols): > 5 µM

CC(C)(C)COc1ccc2c(c1)[C@@]1(COC(N)=N1)c1cc(-c3csc(C(F)F)c3)ccc1O2 [compound 783]
IC50 (BACE1 [1]): < 0.1 µM
IC50 (BACE1 [2]): 1 to 5 µM

N#Cc1ccc(-n2ccc3c(c2=O)[C@@]2(COC(N)=N2)c2cc(-c4cccnc4)ccc2O3)cc1 [compound 523]
IC50 (BACE1 [1]): 1 to 5 µM
IC50 (BACE1 [2]; HEK cells): 1 to 5 µM

CC(C)(C)COc1ccc2c(c1)[C@]1(COC(N)=N1)c1cc(-c3cnc(Cl)nc3)ccc1O2 [compound 881]
IC50 (BACE1 [1]; Table IV, class symbols): < 0.1 µM
IC50 (BACE1 [2]; Table IV, class symbols): 0.1 to 1 µM

CC(C)(C)C#Cc1cnc2c(c1)[C@]1(COC(N)=N1)c1cc(-c3cncnc3)cc(F)c1O2 [compound 537]
IC50 (BACE1 [1]; Table IV, class symbols): < 0.1 µM
IC50 (BACE1 [2]; Table IV, class symbols): 0.1 to 1 µM

CC(C)(C)COc1ccc2c(c1)[C@@]1(COC(N)=N1)c1cc(-c3cnc4ccccn34)ccc1O2 [compound 192]
IC50 (BACE1 [1]; Table III, IC50's in uM ranges): 1 to 5 µM
IC50 (BACE1 [2]; Table III, IC50's in uM ranges): > 5 µM

COc1ccc2c(c1)[C@]1(COC(N)=N1)c1cc(NC(=O)c3ccc(Cl)cn3)ccc1O2 [compound 652, N-((4S)-2-amino-7′-methoxyspiro[1,3-oxazole-4,9′-xanthen]-2′-yl)-5-chloro-2-pyridinecarboxamide]
IC50 (BACE1 [1]; Table IV, class symbols): < 0.1 µM
IC50 (BACE1 [2]; Table IV, class symbols): 0.1 to 1 µM

NC1=N[C@@]2(CO1)c1cc(-c3cccnc3)ccc1Oc1cnc(N3CCOCC3)cc12 [compound 335]
IC50 (BACE1 [1]; [3]): < 0.1 µM
IC50 (BACE1 [2]; [4]): < 0.1 µM

NC1=NC2(CO1)c1cnc(Cl)cc1Oc1ccc(-c3cncnc3)cc12 (centres unmarked) [compound 852]
IC50 (BACE1 [1]; Table IV, class symbols): 1 to 5 µM
IC50 (BACE1 [2]; Table IV, class symbols): > 5 µM

CC(C)(C)COc1ccc2c(c1)[C@]1(COC(N)=N1)c1cc(-c3ccc(N4CCOCC4)nc3)ccc1O2 [compound 912]
IC50 (BACE1 [1]; Table IV, class symbols): 1 to 5 µM
IC50 (BACE1 [2]; Table IV, class symbols): > 5 µM

CC1(C)CN(c2ccc3c(c2)[C@]2(COC(N)=N2)c2cc(-c4cncnc4)ccc2O3)C1 [compound 561]
IC50 (BACE1 [1]; Table IV, class symbols): < 0.1 µM
IC50 (BACE1 [2]; Table IV, class symbols): < 0.1 µM

CC(C)(C)COc1ccc2c(c1)[C@]1(COC(N)=N1)c1cc(C3CC4CCC3C4)ccc1O2 (some centres unmarked) [compound 700]
IC50 (BACE1 [1]): 0.1 to 1 µM
IC50 (BACE1 [2]): > 5 µM

CCC1(CC)CN(c2ccc3c(c2)[C@]2(COC(N)=N2)c2cc(-c4cncnc4)ccc2O3)CCO1 [compound 467]
IC50 (BACE1 [1]): < 0.1 µM
IC50 (BACE1 [2]; HEK cells): 0.1 to 1 µM

CC(C)(C)COc1ccc2c(c1)[C@]1(COC(N)=N1)c1cc(C(=O)N3CCCC3)ccc1O2 [218b]
IC50 (BACE1 [1]; Table III, IC50's in uM ranges): 0.1 to 1 µM
IC50 (BACE1 [2]; Table III, IC50's in uM ranges): 0.1 to 1 µM

CC(C)(C)COc1cnc2c(c1)[C@]1(COC(N)=N1)c1cc(Br)ccc1O2 [compound 388]
IC50 (BACE1 [1]; [3]): 0.1 to 1 µM
IC50 (BACE1 [2]; [4]): 1 to 5 µM
